According to ChEMBL document CHEMBL4219265, “Piperlongumine derivative, CG-06, inhibits STAT3 activity by direct binding to STAT3 and regulating the reactive oxygen species in DU145 prostate carcinoma cells” (Bioorg Med Chem Lett, 2018):

What was measured:
DU-145 [1] = assay: Effect on total STAT3 protein level in human DU145 cells assessed as ratio of STAT3 protein level to GAPDH protein level at 5 uM after 6 hrs by Western blot analysis (reference value: 1); type: ADME, cell-based; conditions: du-145, 6 h
[2] = biological target: T1, Signal transducer and activator of transcription 3 (Homo sapiens, UniProt P40763); assay: Inhibition of STAT3 phosphorylation in human DU145 cells assessed as ratio of phosphorylated STAT3 protein level to GAPDH protein level at 5 uM preincubated with NAC for 1 hr followed by compound addition for 1 hr by Western blot analysis (reference value: 0.3); type: cell-based
T1 sequence (P40763 whole entry): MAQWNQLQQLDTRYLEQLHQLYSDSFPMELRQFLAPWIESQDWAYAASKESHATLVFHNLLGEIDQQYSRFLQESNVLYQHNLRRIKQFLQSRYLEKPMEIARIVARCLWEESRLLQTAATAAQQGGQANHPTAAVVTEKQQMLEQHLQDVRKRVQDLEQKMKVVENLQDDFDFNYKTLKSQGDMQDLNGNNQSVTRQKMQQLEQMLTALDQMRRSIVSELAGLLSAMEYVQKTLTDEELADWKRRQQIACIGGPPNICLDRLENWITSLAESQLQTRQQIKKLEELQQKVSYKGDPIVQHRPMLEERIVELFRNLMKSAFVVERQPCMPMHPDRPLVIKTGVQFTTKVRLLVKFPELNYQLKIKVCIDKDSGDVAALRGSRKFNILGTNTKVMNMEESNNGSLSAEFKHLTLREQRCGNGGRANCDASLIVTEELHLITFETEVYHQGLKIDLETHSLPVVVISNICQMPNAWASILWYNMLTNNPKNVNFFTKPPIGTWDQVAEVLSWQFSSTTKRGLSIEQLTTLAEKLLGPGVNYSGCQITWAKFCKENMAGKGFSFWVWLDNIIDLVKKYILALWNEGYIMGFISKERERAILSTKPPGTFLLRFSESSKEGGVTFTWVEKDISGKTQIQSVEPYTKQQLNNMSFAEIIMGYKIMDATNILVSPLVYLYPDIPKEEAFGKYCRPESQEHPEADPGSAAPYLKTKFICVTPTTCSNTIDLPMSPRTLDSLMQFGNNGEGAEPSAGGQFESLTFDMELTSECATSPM

[3] = biological target: T1, Signal transducer and activator of transcription 3; assay: Binding affinity to STAT3 in human DU145 cell lysates assessed as reduction in pronase-induced STAT3 digestion by measuring ratio of STAT3 protein level to GAPDH protein level at 1 uM incubated for 1 hr followed by 0.05% pronase addition for 10 mins by Western blot analysis (reference value: 1)
DU-145 [4] = assay: Effect on total ERK1/2 protein level in human DU145 cells assessed as ratio of ERK1/2 protein level to GAPDH protein level at 5 uM after 3 hrs by Western blot analysis (reference value: 1); type: ADME, cell-based; conditions: du-145, 3 h
[5] = biological target: T1, Signal transducer and activator of transcription 3; assay: Inhibition of STAT3 phosphorylation at Tyr705 residues in human DU145 cells assessed as ratio of phosphorylated STAT3 protein level to GAPDH protein level at 1 uM after 24 hrs by Western blot analysis (reference value: 1); type: cell-based
[6] = biological target: T1, Signal transducer and activator of transcription 3; assay: Binding affinity to STAT3 in human DU145 cell lysates assessed as reduction in pronase-induced STAT3 digestion by measuring ratio of STAT3 protein level to GAPDH protein level at 1 uM incubated for 1 hr in absence of pronase by Western blot analysis (reference value: 1)
[7] = biological target: T1, Signal transducer and activator of transcription 3; assay: Binding affinity to STAT3 in human DU145 cell lysates assessed as reduction in pronase-induced STAT3 digestion by measuring ratio of STAT3 protein level to GAPDH protein level incubated for 1 hr in absence of pronase by Western blot analysis
[8] = biological target: T1, Signal transducer and activator of transcription 3; assay: Inhibition of STAT3 in human DU145 cells assessed as ratio of cyclin A protein level to tubulin protein level at 5 uM after 48 hrs by Western blot analysis (reference value: 1); type: cell-based
[9] = biological target: T1, Signal transducer and activator of transcription 3; assay: Inhibition of STAT3 phosphorylation at Tyr705 residues in human DU145 cells assessed as ratio of phosphorylated STAT3 protein level to GAPDH protein level at 5 uM after 24 hrs by Western blot analysis (reference value: 1); type: cell-based
[10] = biological target: T1, Signal transducer and activator of transcription 3; assay: Binding affinity to STAT3 in human DU145 cell lysates assessed as reduction in pronase-induced STAT3 digestion by measuring ratio of STAT3 protein level to GAPDH protein level at 10 uM incubated for 1 hr in absence of pronase by Western blot analysis (reference value: 1)
[11] = biological target: T1, Signal transducer and activator of transcription 3; assay: Binding affinity to STAT3 in human DU145 cell lysates assessed as reduction in pronase-induced STAT3 digestion by measuring ratio of STAT3 protein level to GAPDH protein level at 10 uM incubated for 1 hr followed by 0.05% pronase addition for 10 mins by Western blot analysis (reference value: 1)
DU-145 [12] = assay: Effect on total ERK1/2 protein level in human DU145 cells assessed as ratio of ERK1/2 protein level to GAPDH protein level at 5 uM after 6 hrs by Western blot analysis (reference value: 1); type: ADME, cell-based; conditions: du-145, 6 h
DU-145 [13] = assay: Induction of apoptosis in human DU145 cells at 5 uM after 12 hrs by flow cytometry (reference value: 0.61%); type: functional
[14] = biological target: T1, Signal transducer and activator of transcription 3; assay: Inhibition of STAT3 phosphorylation at Tyr705 residues in human DU145 cells assessed as ratio of phosphorylated STAT3 protein level to GAPDH protein level at 5 uM after 12 hrs by Western blot analysis (reference value: 1); type: cell-based
DU-145 [15] = assay: Induction of apoptosis in human DU145 cells at 5 uM after 48 hrs by flow cytometry (reference value: 0.61%); type: functional
[16] = biological target: T1, Signal transducer and activator of transcription 3; assay: Inhibition of STAT3 phosphorylation at Tyr705 residues in human DU145 cells assessed as ratio of phosphorylated STAT3 protein level to GAPDH protein level at 5 uM after 3 hrs by Western blot analysis (reference value: 1); type: cell-based
[17] = biological target: T1, Signal transducer and activator of transcription 3; assay: Inhibition of STAT3 (unknown origin) expressed in human HCT116 cells after 24 hrs by dual-luciferase reporter gene assay; type: cell-based
DU-145 [18] = assay: Effect on total STAT3 protein level in human DU145 cells assessed as ratio of STAT3 protein level to GAPDH protein level at 5 uM after 12 hrs by Western blot analysis (reference value: 1); type: ADME, cell-based; conditions: du-145, 12 h
[19] = biological target: T1, Signal transducer and activator of transcription 3; assay: Binding affinity to STAT3 in human DU145 cell lysates assessed as reduction in pronase-induced STAT3 digestion by measuring ratio of STAT3 protein level to GAPDH protein level at 50 uM incubated for 1 hr followed by 0.05% pronase addition for 10 mins by Western blot analysis (reference value: 0.4)
DU-145 [20] = assay: Cell cycle arrest in human DU145 cells assessed as accumulation at S phase at 5 uM after 24 hrs by flow cytometry (reference value: 6.6%); type: functional
DU-145 [21] = assay: Effect on total ERK1/2 protein level in human DU145 cells assessed as ratio of ERK1/2 protein level to GAPDH protein level at 5 uM after 12 hrs by Western blot analysis (reference value: 1); type: ADME, cell-based; conditions: du-145, 12 h
DU-145 [22] = assay: Effect on total ERK1/2 protein level in human DU145 cells assessed as ratio of ERK1/2 protein level to GAPDH protein level at 5 uM after 0.5 hrs by Western blot analysis (reference value: 1); type: ADME, cell-based; conditions: du-145, 0.5 h
DU-145 [23] = assay: Effect on total STAT3 protein level in human DU145 cells assessed as ratio of ERK1/2 protein level to GAPDH protein level at 5 uM preincubated with NAC for 1 hr followed by compound addition for 1 hr by Western blot analysis (reference value: 1); type: ADME, cell-based; conditions: du-145, 1 h
[24] = biological target: T1, Signal transducer and activator of transcription 3; assay: Inhibition of STAT3 phosphorylation in human LNCAP cells assessed as ratio of phosphorylated STAT3 protein level to GAPDH protein level at 5 uM after 12 hrs by Western blot analysis (reference value: 1); type: cell-based
DU-145 [25] = assay: Cell cycle arrest in human DU145 cells assessed as accumulation at S phase at 5 uM after 12 hrs by flow cytometry (reference value: 6.6%); type: functional
DU-145 [26] = assay: Effect on total STAT3 protein level in human DU145 cells assessed as ratio of STAT3 protein level to GAPDH protein level at 5 uM after 1 hr by Western blot analysis (reference value: 1); type: ADME, cell-based; conditions: du-145, 1 h
[27] = biological target: T1, Signal transducer and activator of transcription 3; assay: Inhibition of STAT3 phosphorylation at Tyr705 residues in human DU145 cells assessed as ratio of phosphorylated STAT3 protein level to GAPDH protein level at 5 uM after 1 hr by Western blot analysis (reference value: 1); type: cell-based
DU-145 [28] = assay: Cell cycle arrest in human DU145 cells assessed as accumulation at G2/M phase at 5 uM after 48 hrs by flow cytometry (reference value: 18.12%); type: functional

SMILES: C=C(C)C(=O)N(Cc1ccc(Br)cc1)C(=O)/C=C/c1cc(OC)c(OC)c(OC)c1
- Ratio (DU-145 [1]): 1
- Ratio [2]: 1.2
- Ratio [3]: 1.1
- Ratio (DU-145 [4]): 1.1
- Ratio [5]: 0.6
- Ratio [6]: 1
- Activity [7]: Dose-dependent effect
- Ratio [8]: 0.6
- Ratio [9]: 0.3
- Ratio [10]: 1.1
- Ratio [11]: 2.1
- Ratio (DU-145 [12]): 1
- Activity (DU-145 [13]): 0.65%
- Ratio [14]: 0.2
- Activity (DU-145 [15]): 7.61%
- Ratio [16]: 0.2
- IC50 [17]: 10 µM
- inhibition [17]: Dose-dependent effect
- Ratio (DU-145 [18]): 0.9
- Ratio [19]: 0.5
- Activity (DU-145 [20]): 8.27%
- Ratio (DU-145 [21]): 0.9
- Ratio (DU-145 [22]): 1.1
- Ratio (DU-145 [23]): 0.7
- Ratio [24]: 1
- Activity (DU-145 [25]): 8.76%
- Ratio (DU-145 [26]): 1
- Ratio [27]: 0.3
- Activity (DU-145 [28]): 18.95%
